Results as given in patent US12446584B2, “Termiticide composition and methods for treating termites” (ADAMA MAKHTESHIM LTD., priority 2013, dated 2025).
Where two headings read alike, the source gives them in different places.

Tests used:
[1] = system: Eastern Subterranean Reticulitermes flavipes termites; assay: Transfer effects among nestmates (donor/recipient Petri dish arenas); format: in vivo; settings: Reticulitermes flavipes, donors treated with 50 ppm
Protocol: (§1) The purpose of this study was to determine whether there is transference of […] among nestmates of subterranean termites. Arenas for this study consisted of a 15 cm Petri dish. […] Donor and untreated marked control termites were marked using RustOleum® Marking Paint, using methodology described by Keefer et al. 2012.
(§2) Two untreated soldier termites for each species were added to each arena to simulate colony dynamics. Post-treatment observations for mortality were made at 4 h and then daily through day 7.

[2] = system: Formosan Coptotermes formosanus termites; assay: as above; format: in vivo; settings: donors treated with 50 ppm; for mortality at 50 ppm: Coptotermes formosanus
Protocol: as §1, §2

[3] = 96 h, donor:recipient ratio 15:5, 4 d, read-out: Mean total % mortality of donors and recipients
[4] = 120 h, by treatment (all ratios), 5 d, read-out: Mean % mortality of donors and recipients
[5] = 120 h, donor:recipient ratio 1:19, 5 d, read-out: Mean total % mortality of donors and recipients
[6] = 120 h, donor:recipient ratio 5:15, 5 d, read-out: Mean total % mortality of donors and recipients
[7] = 120 h, donor:recipient ratio 10:10, 5 d, read-out: Mean total % mortality of donors and recipients
[8] = 120 h, donor:recipient ratio 15:5, 5 d, read-out: Mean total % mortality of donors and recipients
[9] = 144 h, by treatment (all ratios), 6 d, read-out: Mean % mortality of donors and recipients
[10] = 144 h, donor:recipient ratio 1:19, 6 d, read-out: Mean total % mortality of donors and recipients
[11] = 144 h, donor:recipient ratio 5:15, 6 d, read-out: Mean total % mortality of donors and recipients
[12] = 144 h, donor:recipient ratio 10:10, 6 d, read-out: Mean total % mortality of donors and recipients
[13] = 144 h, donor:recipient ratio 15:5, 6 d, read-out: Mean total % mortality of donors and recipients
[14] = 168 h, by treatment (all ratios), 7 d, read-out: Mean % mortality of donors and recipients
[15] = 168 h, donor:recipient ratio 1:19, 7 d, read-out: Mean total % mortality of donors and recipients
[16] = 168 h, donor:recipient ratio 5:15, 7 d, read-out: Mean total % mortality of donors and recipients
[17] = 168 h, donor:recipient ratio 10:10, 7 d, read-out: Mean total % mortality of donors and recipients
[18] = 168 h, donor:recipient ratio 15:5, 7 d, read-out: Mean total % mortality of donors and recipients

Structure (SMILES): N#Cc1nn(-c2c(Cl)cc(C(F)(F)F)cc2Cl)c(N)c1[S+]([O-])C(F)(F)F [Fipronil, 5-amino-1-[2,6-dichloro-4-(trifluoromethyl)phenyl]-4-[(1-R,S)(trifluoromethyl)sulfinyl]-1H-pyrazole-3-carbonitrile]
- mortality at 50 ppm [1, 3]: 100%
- mortality at 50 ppm [1, 4]: 83.8%
- mortality at 50 ppm [1, 5]: 52.5%
- mortality at 50 ppm [1, 6]: 82.5%
- mortality at 50 ppm [1, 7]: 100%
- mortality at 50 ppm [1, 8]: 100%
- mortality at 50 ppm [1, 9]: 98.1%
- mortality at 50 ppm [1, 10]: 97.5%
- mortality at 50 ppm [1, 11]: 95%
- mortality at 50 ppm [1, 12]: 100%
- mortality at 50 ppm [1, 13]: 100%
- mortality at 50 ppm [1, 14]: 100%
- mortality at 50 ppm [1, 15]: 100%
- mortality at 50 ppm [1, 16]: 100%
- mortality at 50 ppm [1, 17]: 100%
- mortality at 50 ppm [1, 18]: 100%
- mortality at 50 ppm ([2]; 4 h, donor:recipient ratio 1:19, 4 h, read-out: Mean total % mortality of donors and recipients): 0%
- mortality at 50 ppm ([2]; 4 h, donor:recipient ratio 5:15, 4 h, read-out: Mean total % mortality of donors and recipients): 3.75%
- mortality at 50 ppm ([2]; 4 h, donor:recipient ratio 10:10, 4 h, read-out: Mean total % mortality of donors and recipients): 17.5%
- mortality at 50 ppm ([2]; 4 h, donor:recipient ratio 15:5, 4 h, read-out: Mean total % mortality of donors and recipients): 16.2%
- mortality at 50 ppm ([2]; 24 h, by treatment (all ratios), 1 d, read-out: Mean % mortality of donors and recipients): 50.6%
- mortality at 50 ppm ([2]; 24 h, donor:recipient ratio 1:19, 1 d, read-out: Mean total % mortality of donors and recipients): 0%
- mortality at 50 ppm ([2]; 24 h, donor:recipient ratio 5:15, 1 d, read-out: Mean total % mortality of donors and recipients): 2.5%
- mortality at 50 ppm ([2]; 24 h, donor:recipient ratio 10:10, 1 d, read-out: Mean total % mortality of donors and recipients): 100%
- mortality at 50 ppm ([2]; 24 h, donor:recipient ratio 15:5, 1 d, read-out: Mean total % mortality of donors and recipients): 100%
- mortality at 50 ppm ([2]; 48 h, by treatment (all ratios), 2 d, read-out: Mean % mortality of donors and recipients): 53.1%
- mortality at 50 ppm ([2]; 48 h, donor:recipient ratio 1:19, 2 d, read-out: Mean total % mortality of donors and recipients): 8.75%
- mortality at 50 ppm ([2]; 48 h, donor:recipient ratio 5:15, 2 d, read-out: Mean total % mortality of donors and recipients): 3.75%
- mortality at 50 ppm ([2]; 48 h, donor:recipient ratio 10:10, 2 d, read-out: Mean total % mortality of donors and recipients): 100%
- mortality at 50 ppm ([2]; 48 h, donor:recipient ratio 15:5, 2 d, read-out: Mean total % mortality of donors and recipients): 100%
- mortality at 50 ppm ([2]; 72 h, by treatment (all ratios), 3 d, read-out: Mean % mortality of donors and recipients): 59.7%
- mortality at 50 ppm ([2]; 72 h, donor:recipient ratio 1:19, 3 d, read-out: Mean total % mortality of donors and recipients): 18.8%
- mortality at 50 ppm ([2]; 72 h, donor:recipient ratio 5:15, 3 d, read-out: Mean total % mortality of donors and recipients): 20%
- mortality at 50 ppm ([2]; 72 h, donor:recipient ratio 10:10, 3 d, read-out: Mean total % mortality of donors and recipients): 100%
- mortality at 50 ppm ([2]; 72 h, donor:recipient ratio 15:5, 3 d, read-out: Mean total % mortality of donors and recipients): 100%
- mortality at 50 ppm ([2]; 96 h, by treatment (all ratios), 4 d, read-out: Mean % mortality of donors and recipients): 67.8%
- mortality at 50 ppm ([2]; 96 h, donor:recipient ratio 1:19, 4 d, read-out: Mean total % mortality of donors and recipients): 25%
- mortality at 50 ppm ([2]; 96 h, donor:recipient ratio 5:15, 4 d, read-out: Mean total % mortality of donors and recipients): 46.2%
- mortality at 50 ppm ([2]; 96 h, donor:recipient ratio 10:10, 4 d, read-out: Mean total % mortality of donors and recipients): 100%
- mortality at 50 ppm [2, 3]: 100%
- mortality at 50 ppm [2, 4]: 82.5%
- mortality at 50 ppm [2, 5]: 30%
- mortality at 50 ppm [2, 6]: 100%
- mortality at 50 ppm [2, 7]: 100%
- mortality at 50 ppm [2, 8]: 100%
- mortality at 50 ppm [2, 9]: 85.5%
- mortality at 50 ppm [2, 10]: 30%
- mortality at 50 ppm [2, 11]: 100%
- mortality at 50 ppm [2, 12]: 100%
- mortality at 50 ppm [2, 13]: 100%
- mortality at 50 ppm [2, 14]: 90%
- mortality at 50 ppm [2, 15]: 60%
- mortality at 50 ppm [2, 16]: 100%
- mortality at 50 ppm [2, 17]: 100%
- mortality at 50 ppm [2, 18]: 100%
- Mean % mortality of donors and recipients ([2]; by treatment (all ratios), 4 h): 9.37 b %
- Mean % mortality of donors and recipients ([2]; by treatment (all ratios), 4 h, listed as fipronil): 1%
